# Source: paper PMC11677126, “Synthesis and Structure–Activity Relationship of Thiourea Derivatives Against Leishmania amazonensis” (Pharmaceuticals, 2024)
# Like-named read-outs stand apart in the source and are kept apart here.
# Legend:
# [1] = system: Leishmania amazonensis amastigotes; set-up: method as in PMID 28966275; settings: read-out: IC50 (amastigote); cited from earlier work
# [2] = system: L. amazonensis intracellular amastigotes; experiment: Antiamastigote assay in infected peritoneal macrophages (infection index); type: cell-based; settings: Leishmania amazonensis, Peritoneal macrophage, 72 h
# Procedure: Resident macrophages from BALB/c mice were obtained by peritoneal lavage with 5 mL of cold RPMI medium. The cell suspension was adjusted to a 2 × 10^6 cells/mL concentration and plated in LAB-TEK chambers. After 1 h, the cultures were washed with phosphate-buffered saline at 37 °C to remove non-adherent cells. The remaining cells were incubated at 37 °C/5% CO2 with promastigotes of L. amazonensis at a ratio of 3:1. After 3 h, the chambers were rewashed to remove free parasites. […] For G2, we first tested only at a concentration of 10 µM, and derivatives with inhibition above 60% were evaluated using the dose–response curve. The antiamastigote activity was evaluated microscopically after staining the chambers with the Instant Prov hematological dye system (Newprov, Curitiba, Brazil); at least 100 macrophages were counted per sample. The results were expressed as the infection index (IF) using the following formula: IF = % infected cells X (number of amastigotes/total macrophages). The IC50 value was determined by nonlinear regression using Graph Pad Prism 9.0.
# [3] = system: L. amazonensis promastigote; experiment: Antipromastigote assay (resazurin fluorescence); type: cell-based, Leishmania amazonensis; settings: promastigotes, 72 h at 26 °C
# Procedure: The fluorescence was measured using a Spectra Max GEMINI XPS spectrofluorometer (Molecular Devices, Silicon Valley, CA, USA) at excitation and emission wavelengths of 560 nm and 590 nm, respectively.
# [4] = Toxicity assay in murine macrophages (resazurin); type: cell-based; settings: BALB/c, mouse, mouse peritoneal macrophages
# Procedure: Mouse peritoneal macrophages (2 × 10^6 cells/mL) in 96-well plates were treated with different concentrations of thiourea compounds (G1: 0–400 µM and G2: 0–125 µM) for 72 h at 37 °C/5% CO2. After removing the supernatant, viable cells were quantified by adding resazurin in phosphate-buffered saline, a final concentration of 50 µM, and then the samples were incubated for an additional 3 h. The fluorescence was measured using a Spectra Max GEMINI XPS spectrofluorometer (Molecular Devices, Silicon Valley, CA, USA) at excitation and emission wavelengths of 560 nm and 590 nm, respectively. The percentage of viable cells was calculated relative to the control cells. The cytotoxic concentrations lethal to 50% of the cells (CC50) were obtained by nonlinear regression of the sigmoid growth curves using the Graph Pad Prism 9.0 software.
# [5] = system: Leishmania infantum amastigotes; set-up: method as in PMID 30782984; settings: cited from earlier work
# [6] = system: L. infantum amastigote; settings: cited from earlier work
# [7] = system: L. donovani amastigote; settings: cited from earlier work
# [8] = system: L. amazonensis promastigote; set-up: method as in PMID 28966275; settings: cited from earlier work
# [9] = system: L. amazonensis promastigotes; set-up: method as in doi:10.5897/JMA2013.0261; settings: L. amazonensis promastigotes (text b27); cited from earlier work
# [10] = system: Leishmania major promastigotes; set-up: method as in PMID 36001225; settings: after 48 h (text b28); cited from earlier work
# [11] = G2 piperazine thioureas, maximum concentration tested 10 µM, unit from footnote
# [12] = Leishmania amazonensis, 72 h, G2 piperazine thioureas
# [13] = G2 piperazine thioureas, 0–125 µM
# [14] = Leishmania amazonensis, 72 h, G1 thioureas, maximum concentration tested 100 µM
# [15] = G1 thioureas, maximum concentration tested 25 µM
# [16] = G1 thioureas, maximum concentration tested 100 µM
"IC50 [3, 12]","IC50 [3, 14]",Compound,other results
30.3 ± 4.6 µM,,S=C(NCc1ccccc1)N1CCN(Cc2ccc3c(c2)OCO3)CC1 [Thiourea 5e],"IC50 [2, 11]: > 10 µM; CC50 at 72 h [4, 13]: 122 ± 2.8 µM"
> 128 µM,,O=C(C1CCCO1)N1CCN(C(=S)Nc2ccccc2)CC1 (stereo not shown) [Thiourea 5a],
18.8 ± 3.1 µM,,S=C(NCCc1ccccc1)N1CCN(c2nc3ccccc3[nH]2)CC1 [Thiourea 5q],"IC50 [2, 11]: > 10 µM; CC50 at 72 h [4, 13]: 72.9 ± 32.2 µM"
7.9 ± 1.9 µM,,S=C(NCc1ccccc1)N1CCN(C(c2ccccc2)c2ccccc2)CC1 [Thiourea 5h],"IC50 [2, 11]: 8.8 ± 3.5 µM; CC50 at 72 h [4, 13]: > 125 µM"
> 128 µM,,COc1cc(NC(=S)N2CCN(Cc3ccc4c(c3)OCO4)CC2)cc(OC)c1OC [Thiourea 5s],
28.2 ± 2.5 µM,,S=C(NCCc1ccccc1)N1CCN(c2ccccc2Cl)CC1 [Thiourea 5l],"IC50 [2, 11]: > 10 µM; CC50 at 72 h [4, 13]: 79.5 ± 19.8 µM"
77.5 ± 4.5 µM,,O=C(C1CCCO1)N1CCN(C(=S)NCc2ccccc2)CC1 (stereo not shown) [Thiourea 5b],
30.7 ± 3 µM,,S=C(NCc1ccccc1)N1CCN(c2ccccc2Cl)CC1 [Thiourea 5k],"IC50 [2, 11]: > 10 µM; CC50 at 72 h [4, 13]: 68.3 ± 2.8 µM"
30.7 ± 3.2 µM,,S=C(Nc1ccccc1)N1CCN(C(c2ccccc2)c2ccccc2)CC1 [Thiourea 5g],"IC50 [2, 11]: > 10 µM; CC50 at 72 h [4, 13]: > 125 µM"
6.9 ± 2 µM,,S=C(NCCc1ccccc1)N1CCN(C(c2ccccc2)c2ccccc2)CC1 [Thiourea 5i],"IC50 [2, 11]: 1.8 ± 0.5 µM; CC50 at 72 h [4, 13]: > 125 µM"
> 128 µM,,S=C(Nc1ccccc1)N1CCN(c2ccccc2Cl)CC1 [Thiourea 5j],
90.2 ± 2.9 µM,,S=C(Nc1ccccc1)N1CCN(Cc2ccc3c(c2)OCO3)CC1 [Thiourea 5d],
> 128 µM,,COc1ccc(CN2CCN(C(=S)Nc3ccccc3)CC2)c(OC)c1OC [Thiourea 5m],
> 128 µM,,COc1cc(NC(=S)N2CCN(c3ccccc3Cl)CC2)cc(OC)c1OC [Thiourea 5u],
> 128 µM,,O=C(C1CCCO1)N1CCN(C(=S)NCCc2ccccc2)CC1 (stereo not shown) [Thiourea 5c],
> 128 µM,,COc1cc(NC(=S)N2CCN(C(=O)C3CCCO3)CC2)cc(OC)c1OC (stereo not shown) [Thiourea 5r],
> 128 µM,,S=C(Nc1ccccc1)N1CCN(c2nc3ccccc3[nH]2)CC1 [Thiourea 5p],
> 128 µM,,S=C(NCCc1ccccc1)N1CCN(Cc2ccc3c(c2)OCO3)CC1 [Thiourea 5f],
> 128 µM,,COc1cc(NC(=S)N2CCN(Cc3ccc(OC)c(OC)c3OC)CC2)cc(OC)c1OC [Thiourea 5v],
42.5 ± 1.6 µM,,COc1ccc(CN2CCN(C(=S)NCc3ccccc3)CC2)c(OC)c1OC [Thiourea 5n],"IC50 [2, 11]: > 10 µM; CC50 at 72 h [4, 13]: 88.3 ± 5.6 µM"
22.3 ± 1.6 µM,,COc1cc(NC(=S)N2CCN(C(c3ccccc3)c3ccccc3)CC2)cc(OC)c1OC [Thiourea 5t],"IC50 [2, 11]: 4.9 ± 1.2 µM; CC50 at 72 h [4, 13]: 81.3 ± 16.9 µM"
> 128 µM,,COc1ccc(CN2CCN(C(=S)NCCc3ccccc3)CC2)c(OC)c1OC [Thiourea 5o],

# The next lines start with the compound.
Compound,"IC50 [3, 12]","IC50 [3, 14]",other results
meglumine antimoniate,,,IC50 [1]: 212 µM
COc1ccc(NC(=S)NCCc2ccccc2)cc1OC [Thiourea 3j],,> 100 µM,
CCCCNC(=S)Nc1ccc([Se][Se]c2ccc(NC(=S)NCCCC)cc2)cc1 [Compound 10],,,IC50 [5]: 2.36 ± 0.44 µM
O=C(NNC(=S)NCc1ccccc1)c1ccccc1 [Thiourea 3o],,80.4 ± 10 µM,
S=C(NCCc1ccccc1)Nc1ccccn1 [Thiourea 3f],,> 100 µM,
CCCCNC(=S)Nc1ccccc1 [Thiourea 3t],,60 ± 6.4 µM,
COc1cc(NC(=S)NCCc2ccccc2)cc(OC)c1 [Thiourea 3l],,> 100 µM,
CN(C[C@H](O)[C@@H](O)[C@H](O)[C@H](O)CO)C(=S)NCc1ccccc1 [Thiourea 3w],,> 100 µM,
COc1ccc(NC(=S)Nc2cc(OC)c(OC)c(OC)c2)cc1OC [Thiourea 3z],,> 100 µM,
CC(C)Oc1cc(C(=O)Nc2cc(-c3ccccn3)n[nH]2)cc(C(=O)N2CCCC2)c1 [Compound 6],,,IC50 [6]: > 42.4 µM; IC50 [7]: ≥ 10.9 µM
COc1cc(NC(=S)NCCc2ccccc2)cc(OC)c1OC [Thiourea 3m],,> 100 µM,
S=C(Nc1ccccc1)Nc1ccccn1 [Thiourea 3d],,,"IC50 [2, 15]: 10.8 ± 2.4 µM; CC50 at 72 h ([4]; G1 thioureas, 0–400 µM): > 400 µM"
COc1cc(NC(=S)N2CCOCC2)cc(OC)c1OC [Thiourea 3x],,> 100 µM,
S=C(NCCc1ccccc1)Nc1ccc2c(c1)OCO2 [Compound 8],,,IC50 [8]: 54.1 ± 6.77 µM; IC50 [1]: 70 µM
S=C(Nc1ccccc1)N1CCOCC1 [Thiourea 3a],,> 100 µM,
CCOC(=O)c1ccc(NC(N)=S)cc1 [Thiourea 9],,,IC50 [9]: 45 µM
COc1cc(NC(=S)NCc2ccccc2)cc(OC)c1 [Thiourea 3k],,> 100 µM,
COc1cc(NC(=S)Nc2ccccn2)cc(OC)c1OC [Thiourea 3y],,> 100 µM,

Compound,"IC50 [3, 12]","IC50 [3, 14]",other results
N=C(N)c1ccc(OCCCCCOc2ccc(C(=N)N)cc2)cc1 [pentamidine],,,IC50 [9]: 0.46 µM
COc1ccc(NC(=S)Nc2ccccc2)cc1 [Thiourea 3g],,> 100 µM,
Oc1cccc(NC(=S)NCc2ccccc2)c1 [Thiourea 3v],,> 100 µM,
C[C@@H]1[C@H](O)[C@@H](C)/C=C/C=C/C=C/C=C/C=C/C=C/C=C/[C@H](O[C@@H]2O[C@H](C)[C@@H](O)[C@H](N)[C@@H]2O)C[C@@H]2O[C@](O)(C[C@@H](O)C[C@@H](O)[C@H](O)CC[C@@H](O)C[C@@H](O)CC(=O)O[C@H]1C)C[C@H](O)[C@H]2C(=O)O [amphotericin B],,,IC50 [10]: 0.2 ± 0.01 µM
Cc1nnc(NC(=S)Nc2ccccc2)s1 [Thiourea 3r],,65.8 ± 8.2 µM,
COc1ccc(NC(=S)NCc2ccccc2)cc1OC [Thiourea 3i],,> 100 µM,
COc1cc(NC(=S)Nc2nnc(C(F)(F)F)s2)cc(OC)c1OC [Thiourea 3a′],,77.8 ± 6.7 µM,
S=C(NCc1ccccc1)Nc1ccc(Br)cc1 [Thiourea 3q],,< 50 µM,"IC50 [2, 15]: > 25 µM; IC50 [3, 16]: 44.4 ± 10.6 µM; CC50 at 72 h ([4]; G1 thioureas, 0–400 µM): > 400 µM"
S=C(NCc1ccccc1)Nc1ccccn1 [Thiourea 3e],,< 50 µM,"IC50 [3, 16]: 25.4 ± 8.3 µM; CC50 at 72 h ([4]; G1 thioureas, 0–400 µM): > 400 µM"
CCCCNC(=S)Nc1cc(OC)c(OC)c(OC)c1 [Thiourea 3b′],,> 100 µM,
Cc1ccccc1NC(=S)NCc1ccccc1 [Thiourea 3u],,56.2 ± 4.2 µM,
S=C(NCc1ccccc1)N1CCOCC1 [Thiourea 3b],,> 100 µM,
S=C(Nc1ccccc1)Nc1ccc(Br)cc1 [Thiourea 3p],,< 50 µM,"IC50 [2, 15]: 8.7 ± 1.4 µM; IC50 [3, 16]: 32.9 ± 9.5 µM; CC50 at 72 h ([4]; G1 thioureas, 0–400 µM): > 400 µM"
Cc1sc(NC(=S)NC(=O)C2CC2)nc1-c1ccccc1 [Compound 11],,,IC50 [10]: 122 ± 1.41 µM
COc1ccc(NC(=S)NCc2ccccc2)cc1 [Thiourea 3h],,61.6 ± 6.5 µM,
"CCCCCCCCCCCCCCCCOP(=O)([O-])OCC[N+](C)(C)C [Miltefosine, reference compound]",6.9 ± 2.4 µM,6.9 ± 2.4 µM,"IC50 [2, 15]: 7.5 ± 1.2 µM; IC50 [2, 11]: 7.5 ± 1.2 µM; IC50 [5]: 2.84 ± 0.1 µM"
CCc1nnc(NC(=S)NCc2ccccc2)s1 [Thiourea 3s],,58.4 ± 1.9 µM,
S=C(NCCc1ccccc1)N1CCOCC1 [Thiourea 3c],,> 100 µM,
